Literature values, collected in article PMC9306982 (Journal of Food and Drug Analysis, 2019).

Tests used:
xanthine oxidase = conditions: for inhibitory activity against xanthine oxidase (in words): isolates from aerial part of Hyptis rhomboids
[1] = compared with caffeoylquinic acids
[2] = system: potassium oxonate-treated rat; conditions: oral administration

In the case of `O=C(O)/C=C/c1ccc(O)c(O)c1` [Compound 11, caffeic acid], the “xanthine oxidase inhibitory activity (in words)” value (xanthine oxidase) is given as “moderate” and the “bioavailability (in words)” value [1] is given as “better”.
In the case of `COC(=O)C1(O)CC(O)C(OC(=O)C=Cc2ccc(O)c(O)c2)C(OC(=O)C=Cc2ccc(O)c(O)c2)C1` (centres unmarked) [methyl 4,5-dicaffeoylquinate], the “hypouricemic effect (in words)” value [2] is listed as “good”.
For `O=C(/C=C/c1ccc(O)c(O)c1)O/C=C\c1ccc(O)c(O)c1` [netpetoidin B], the “inhibitory activity against xanthine oxidase (in words)” value (xanthine oxidase) is listed as “good”.
In the case of epihyprhombin B, the “inhibitory activity against xanthine oxidase (in words)” value (xanthine oxidase) is given as “good”.
